The source of these data is ChEMBL document CHEMBL1134478, “Recent developments in the biology and medicinal chemistry of potassium channel modulators: update from a decade of progress” (J Med Chem, 2001).

Test [1] is filed under the species Cavia porcellus. Description: The effective dose to inhibit 20% was measured on guinea pig. The format is functional.
Test [2] is filed under the species Cavia porcellus. Description: The effective dose to inhibit 50% was measured on guinea pig. The format is functional.
The species named for test [3] is Rattus norvegicus. The experiment in a line: The percentage of residual insulin release at 50 uM of compound in the presence of glucose on rat pancreatic beta cells. The format is functional.
The species named for test [4] is Rattus norvegicus. The experiment in a line: The effective dose for relaxation was measured on rat aorta rings. The format is functional. Conditions: read-out: ED50 (the source's name).
The target of test [5] is T1, Potassium voltage-gated channel subfamily A member 5 (Homo sapiens, UniProt P22460). The experiment in a line: (§1) Inhibition of voltage-gated potassium channel subunit Kv1.5.
The target of test [6] is T1, Potassium voltage-gated channel subfamily A member 5. The experiment in a line: The inhibitory concentration for 50% was measured on cation flux.
Test [7] is described as follows: Inhibition of glyburide binding to K-ATP potassium channel; Inactive.
Test [8] is described as follows: EC25 and IC50 Ratio of the compound. The format is functional. Details: reference not given here.
For test [9], the species on record is Rattus norvegicus. Description: The inhibitory concentration (IC50) for vasorelaxation on rat aorta. The format is functional.
For test [10], the species on record is Rattus norvegicus. Description: The effective concentration (EC25) was measured for anti-ischemic activity on perfused rat hearts. The format is functional.
The species entered for test [11] is Rattus norvegicus. Description: Antagonistic activity in the rat thoracic aorta. The format is functional.
The target in test [12] is T2, Small conductance calcium-activated potassium channel protein 1 (Homo sapiens, UniProt Q92952). The experiment in a line: Inhibition of hSK1 calcium activated potassium channel (SKCa channel).
Test [13] has as its target T2, Small conductance calcium-activated potassium channel protein 1. The experiment in a line: Inhibition of hSK1 calcium activated potassium channel (SKCa channel); Range is 1-2.
Test [14] is filed under the species Cavia porcellus. The experiment in a line: The inhibitory concentration for 50% was measured on guinea pig bladder strips. The format is functional.
Test [15] is filed under the species Cavia porcellus. The experiment in a line: The inhibitory concentration of compound on guinea pig portal vein. The format is functional.
For test [16], the species on record is Cavia porcellus. The experiment in a line: The inhibitory concentration of compound on guinea pig bladder strips. The format is functional.
A short description of test [17]: In vitro reduction of glutamate release in hippocampal slices. The following applies: Rattus norvegicus, Hippocampus. The format is functional, tissue-based.
The species entered for test [18] is Cavia porcellus. Description: Relaxation of guinea pig bladder strips when contracted with 20 mM KCl. The format is functional.
Test [19] can be described thus: Inhibition of currents and prolonged action potential duration in human atrial myocytes. The format is functional, Cardiac atrium.
For test [20], the species on record is Cavia porcellus. Description: The inhibitory concentration was measured on guinea pig cardiomyocytes. The format is functional.
Test [21] is filed under the species Rattus norvegicus. Description: The inhibitory concentration was measured on the rat insulinoma cell line RIN-m5F. The format is functional.
Test [22] addresses T3, Sulfonylurea receptor 2, Kir6.2 (Homo sapiens, UniProt O60706+Q14654). Description: Inhibition of human SUR2A/Kir6.2 expressed in Xenopus oocytes. The format is cell-based, Oocyte.
The nature of test [23]: The inhibitory concentration for 50% was measured on the rat insulinoma cell line RIN-m5F. The format is functional.
Test [24] concerns the target Sulfonylurea receptor 1, Kir6.2 (Homo sapiens, UniProt Q09428+Q14654). The experiment in a line: Inhibition of human SUR1/Kir6.2 expressed in CHO cells. The format is cell-based.
Test [25] is filed under the species Cavia porcellus. Description: The inhibitory concentration for 50% was measured on guinea pig cardiomyocytes. The format is functional.
For test [26], the target named is T1, Potassium voltage-gated channel subfamily A member 5. The test is described as §1. The format is functional.
Test [27] can be described thus: Inhibition of glyburide binding to K-ATP potassium channel.
Test [28] is described as follows: Inhibition of Kir6.1/SUR1 potassium channel K-ATP. Set-up: species or system Homo sapiens.
For test [29], the species on record is Rattus norvegicus. Description: In vitro inhibitory concentration for 50% vasorelaxant effect was measured on rat aorta strips. The format is functional.
The species entered for test [30] is Rattus norvegicus. The experiment in a line: Antagonistic activity (pKb) was measured in the rat thoracic aorta. The format is functional.
Test [31] has as its target T3, Sulfonylurea receptor 2, Kir6.2. The experiment in a line: (§2) Inhibition of SUR2B/Kir6.2. The format is protein-complex assay, Rattus norvegicus.
Test [32] is filed under the species Rattus norvegicus. Description: The inhibitory concentration for 50% was measured on rat aorta strips. The format is functional.
Test [33] is filed under the species Rattus norvegicus. The experiment in a line: The effective concentration was measured on rat aorta strips. The format is functional.
Test [34] deals with T3, Sulfonylurea receptor 2, Kir6.2. The description is as §2. The format is protein-complex assay.
The target of test [35] is Voltage-gated potassium channel, IKs; KCNQ1(Kv7.1)/KCNE1(MinK) (Homo sapiens, UniProt P15382+P51787). The experiment in a line: Inhibition of Iks current KvLQT1 potassium channel. The format is protein-complex assay.
Test [36] has as its target Gardos channel, KCNN4/IK1 (Homo sapiens). Description: Selectivity for gardos channel; (Gardos channel vs 2000 nM for the cardiac IKs channel).).

Molecules are shown by their SMILES. The source made the active and inactive calls. No cut-off for these calls is given here.

T1 sequence (P22460 whole entry): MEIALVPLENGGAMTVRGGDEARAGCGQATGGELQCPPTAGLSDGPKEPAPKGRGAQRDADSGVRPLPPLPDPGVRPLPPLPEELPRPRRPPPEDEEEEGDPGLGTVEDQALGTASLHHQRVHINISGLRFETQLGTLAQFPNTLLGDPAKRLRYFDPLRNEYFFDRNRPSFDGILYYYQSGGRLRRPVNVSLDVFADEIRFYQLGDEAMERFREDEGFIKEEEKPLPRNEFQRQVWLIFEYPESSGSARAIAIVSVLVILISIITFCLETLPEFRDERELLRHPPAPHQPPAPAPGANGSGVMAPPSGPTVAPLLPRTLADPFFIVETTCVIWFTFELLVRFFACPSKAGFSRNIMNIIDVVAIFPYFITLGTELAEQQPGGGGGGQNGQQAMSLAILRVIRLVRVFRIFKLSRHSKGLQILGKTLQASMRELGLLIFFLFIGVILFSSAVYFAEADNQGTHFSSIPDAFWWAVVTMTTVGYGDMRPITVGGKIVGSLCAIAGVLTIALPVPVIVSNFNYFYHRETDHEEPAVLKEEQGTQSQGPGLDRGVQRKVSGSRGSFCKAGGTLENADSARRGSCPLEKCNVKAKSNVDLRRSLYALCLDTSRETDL
T3 sequence (Q14654 whole entry): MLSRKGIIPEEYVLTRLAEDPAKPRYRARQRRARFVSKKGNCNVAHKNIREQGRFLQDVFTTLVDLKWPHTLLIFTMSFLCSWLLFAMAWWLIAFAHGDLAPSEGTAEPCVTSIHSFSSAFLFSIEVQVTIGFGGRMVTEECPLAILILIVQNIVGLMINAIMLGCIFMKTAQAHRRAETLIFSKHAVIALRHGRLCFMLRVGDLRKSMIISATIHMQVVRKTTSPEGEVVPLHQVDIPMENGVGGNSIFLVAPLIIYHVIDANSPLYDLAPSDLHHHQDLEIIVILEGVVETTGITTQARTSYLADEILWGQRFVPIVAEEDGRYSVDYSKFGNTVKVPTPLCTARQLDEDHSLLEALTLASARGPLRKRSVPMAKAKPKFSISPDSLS
T3 sequence (O60706 whole entry): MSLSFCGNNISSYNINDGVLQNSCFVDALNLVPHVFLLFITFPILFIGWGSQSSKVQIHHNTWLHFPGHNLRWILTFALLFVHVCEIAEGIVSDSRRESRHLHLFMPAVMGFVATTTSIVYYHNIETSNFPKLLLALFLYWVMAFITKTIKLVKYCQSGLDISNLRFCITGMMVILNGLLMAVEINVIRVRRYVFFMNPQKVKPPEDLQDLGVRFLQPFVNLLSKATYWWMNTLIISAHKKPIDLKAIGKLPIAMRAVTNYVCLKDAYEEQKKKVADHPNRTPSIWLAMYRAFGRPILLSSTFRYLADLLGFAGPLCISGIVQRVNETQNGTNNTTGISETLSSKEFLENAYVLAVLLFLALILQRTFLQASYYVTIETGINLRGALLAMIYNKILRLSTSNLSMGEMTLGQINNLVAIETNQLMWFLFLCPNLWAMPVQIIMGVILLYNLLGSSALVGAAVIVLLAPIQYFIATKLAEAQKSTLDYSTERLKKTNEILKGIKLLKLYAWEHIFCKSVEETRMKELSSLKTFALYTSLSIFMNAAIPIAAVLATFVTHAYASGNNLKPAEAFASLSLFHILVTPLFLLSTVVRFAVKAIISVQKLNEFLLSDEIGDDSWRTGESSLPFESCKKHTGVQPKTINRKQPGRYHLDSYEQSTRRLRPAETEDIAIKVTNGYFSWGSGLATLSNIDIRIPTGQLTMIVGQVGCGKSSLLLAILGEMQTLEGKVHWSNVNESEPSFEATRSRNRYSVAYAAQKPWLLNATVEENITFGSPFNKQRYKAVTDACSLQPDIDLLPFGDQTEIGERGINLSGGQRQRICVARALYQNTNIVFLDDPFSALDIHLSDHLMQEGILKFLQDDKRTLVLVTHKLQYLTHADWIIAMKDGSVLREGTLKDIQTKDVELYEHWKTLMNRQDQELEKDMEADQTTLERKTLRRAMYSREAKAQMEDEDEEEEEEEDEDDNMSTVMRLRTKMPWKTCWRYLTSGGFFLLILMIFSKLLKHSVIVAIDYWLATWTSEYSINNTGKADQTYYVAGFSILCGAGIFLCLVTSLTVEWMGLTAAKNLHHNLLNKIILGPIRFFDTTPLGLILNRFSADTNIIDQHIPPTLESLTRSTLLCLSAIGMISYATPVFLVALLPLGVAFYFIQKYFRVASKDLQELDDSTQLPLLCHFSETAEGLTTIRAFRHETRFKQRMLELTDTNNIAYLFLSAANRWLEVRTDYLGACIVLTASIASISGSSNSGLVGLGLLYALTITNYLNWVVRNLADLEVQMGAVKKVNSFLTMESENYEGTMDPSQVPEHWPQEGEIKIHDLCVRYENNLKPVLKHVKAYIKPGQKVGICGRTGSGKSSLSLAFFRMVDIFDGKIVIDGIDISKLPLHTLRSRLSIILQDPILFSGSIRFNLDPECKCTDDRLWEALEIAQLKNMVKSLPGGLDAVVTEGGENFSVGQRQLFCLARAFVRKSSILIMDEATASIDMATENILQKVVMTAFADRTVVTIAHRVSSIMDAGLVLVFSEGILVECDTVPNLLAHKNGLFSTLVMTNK
T2 sequence (Q92952 whole entry): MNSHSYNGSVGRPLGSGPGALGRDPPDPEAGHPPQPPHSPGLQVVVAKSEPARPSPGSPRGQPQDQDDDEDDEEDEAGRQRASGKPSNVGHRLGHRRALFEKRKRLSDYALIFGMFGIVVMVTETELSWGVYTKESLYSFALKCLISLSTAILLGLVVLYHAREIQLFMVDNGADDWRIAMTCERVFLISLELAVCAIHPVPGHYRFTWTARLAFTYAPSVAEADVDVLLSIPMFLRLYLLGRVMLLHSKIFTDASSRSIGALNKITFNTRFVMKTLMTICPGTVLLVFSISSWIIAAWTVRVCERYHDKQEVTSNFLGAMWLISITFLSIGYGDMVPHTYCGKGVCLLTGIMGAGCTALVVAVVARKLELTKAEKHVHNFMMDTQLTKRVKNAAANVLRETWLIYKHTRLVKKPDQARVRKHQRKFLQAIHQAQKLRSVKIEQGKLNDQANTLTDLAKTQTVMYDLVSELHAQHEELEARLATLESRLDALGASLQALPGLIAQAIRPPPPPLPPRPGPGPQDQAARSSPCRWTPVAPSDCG
Voltage-gated potassium channel, IKs; KCNQ1(Kv7.1)/KCNE1(MinK), sequence (P51787 whole entry): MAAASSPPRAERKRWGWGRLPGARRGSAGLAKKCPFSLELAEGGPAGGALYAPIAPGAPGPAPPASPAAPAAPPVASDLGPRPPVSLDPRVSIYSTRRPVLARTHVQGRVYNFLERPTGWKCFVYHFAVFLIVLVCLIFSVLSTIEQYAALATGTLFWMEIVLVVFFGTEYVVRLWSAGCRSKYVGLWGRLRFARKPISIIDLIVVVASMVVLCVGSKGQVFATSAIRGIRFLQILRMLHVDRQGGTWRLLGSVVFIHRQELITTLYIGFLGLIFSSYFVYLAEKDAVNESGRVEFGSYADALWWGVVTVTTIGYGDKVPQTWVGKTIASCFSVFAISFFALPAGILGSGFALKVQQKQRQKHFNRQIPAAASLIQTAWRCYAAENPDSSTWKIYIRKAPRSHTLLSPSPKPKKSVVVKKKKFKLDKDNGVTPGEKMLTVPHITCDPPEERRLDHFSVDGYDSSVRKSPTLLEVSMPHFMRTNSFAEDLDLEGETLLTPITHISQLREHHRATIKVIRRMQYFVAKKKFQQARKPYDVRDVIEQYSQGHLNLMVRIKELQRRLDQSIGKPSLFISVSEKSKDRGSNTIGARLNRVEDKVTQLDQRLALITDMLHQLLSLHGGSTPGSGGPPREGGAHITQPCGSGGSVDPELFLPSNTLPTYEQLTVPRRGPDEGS

Molecule `Cc1cc(-c2ccc3c(c2)[C@@H](NC(=O)c2cccnc2)[C@H](O)C(C)(C)O3)ccn1` displayed an ED20 in the test filed under Cavia porcellus [1] of 100 µg/kg. The ED50 – broadly, the dose at which the effect has come halfway, by size or by number of responders – in the test listed under Cavia porcellus [2] is 0.08 µg/kg. For the molecule `CC(NC1=NS(=O)(=O)c2cccnc2N1)C(C)(C)C` (stereo not drawn), in the test filed under Rattus norvegicus [3], the Insulin release stood at 98.9%. Also, in the test filed under Rattus norvegicus [4], the EC50 was determined as 7500 nM. Take `CCCCc1ccc(S(=O)(=O)N[C@@H]2c3cc(NC(=O)c4cccc(OC)c4)ccc3CC[C@H]2O)cc1`: the figures for the IC50 in test [5] and in [6] were about 50 nM and about 2900 nM, respectively. Turning to `CC[C@@H](N/C(=N/C#N)Nc1cccnc1)c1ccccc1`, the NA result in [7] is “inactive”. `CC1(C)Oc2ccc(C#N)cc2[C@H](N(Cc2ncc[nH]2)c2ccc(Cl)cc2)[C@H]1O` [BMS-191095]: the Ratio in [8] was under 0.05. Further, the IC50 (as a rule, the midpoint of a concentration-inhibition curve) in the test listed under Rattus norvegicus [9] was over 30000 nM. The concentration for an effect of 25% (EC25) (usually the point of the concentration-response curve where the effect stands at 25%) in the test filed under Rattus norvegicus [10] was 1400 nM. Regarding `C=CCN(C1=NCCN1)c1c(Cl)cccc1Cl` [ALINIDINE], the pKb (commonly the Kb on a negative log10 scale, so that one unit is a factor of ten) in the test listed under Rattus norvegicus [11] is recorded as 5.5. `c1cc2cc(c1)C[n+]1ccc(c3ccccc31)NCc1ccc(cc1)CNc1cc[n+](c3ccccc13)C2`: in [12], the half-maximal inhibitory concentration (IC50) was found to be 3 nM. Regarding `CC1(C)Oc2ccc(C#N)cc2[C@H](N2CCCC2=O)[C@H]1O` [(-)-CROMAKALIM], the Ratio in test [8] came to 278. Further, half-maximal inhibition in the test listed under Rattus norvegicus [9] (IC50) was put at 32 nM. Moreover, in the test listed under Rattus norvegicus [10], the EC25 is 8900 nM. In the case of `c1ccc2c(c1)c1cc[n+]2CCCCC[n+]2ccc(c3ccccc32)NCCCCCN1`, the IC50 in test [13] came to 1 nM. `C[C@](O)(C(=O)Nc1cccc2c1C(=O)c1sccc1CS2(=O)=O)C(F)(F)F` returned an IC50 in the test filed under Cavia porcellus [14] of 2500 nM. As for `N#Cc1cccc(C2C3=C(CCCC3=O)NC3=C2C(=O)CCC3)c1`, the concentration for half-maximal inhibition (IC50) in the test filed under Cavia porcellus [15] turned out to be 750 nM; in the test listed under Cavia porcellus [16], 4200 nM. `COc1ccc(Cl)cc1[C@]1(F)C(=O)Nc2cc(C(F)(F)F)ccc21` [FLINDOKALNER] came in with an IC50 in test [17] of 352 nM. The molecule `Cc1c(-c2ccccc2F)[nH]c(N)c1C#N` came in with an IC50 in the test listed under Cavia porcellus [18] of 540 nM. Turning to `CCc1ccc(S(=O)(=O)N[C@@H]2c3cc(NC(=O)c4cccc(OC)c4)ccc3C[C@H]2O)cc1`, in test [5], the IC50 was determined as 100 nM. In addition, in test [19], the Inhibition – broadly, the change of the read-out against control, counted positive when it falls – was over 50%. Take `COc1ccc(Cl)cc1C(=O)NCCc1ccc(S(=O)(=O)NC(=O)NC2CCCCC2)cc1` [GLYBURIDE]: the IC50 in the test listed under Cavia porcellus [20] came to 8 nM; in the test listed under Rattus norvegicus [21] it was 1.6 nM; in [22] it was 220 nM. For the molecule `CC(NC1=NS(=O)(=O)c2cc(Cl)cnc2N1)C(C)(C)C` (stereo not drawn), the Insulin release in the test listed under Rattus norvegicus [3] was determined as 41.5%. In the test listed under Rattus norvegicus [4], the EC50 was 2300 nM. Turning to `CNC(=S)NS(=O)(=O)c1cc(CCNC(=O)c2cc(Cl)ccc2OC)ccc1OC` [CLAMIKALANT], the half-inhibitory concentration (IC50) in [23] stood at 7500 nM; in test [24], 8200 nM; in the test filed under Cavia porcellus [25], 800 nM; in [22], 4300 nM. In turn, `O=C1NCCN1CCN1CCC(c2cn(-c3ccc(F)cc3)c3ccc(Cl)cc23)CC1` [SERTINDOLE] displayed an IC50 in test [26] of 2000 nM.

The molecule `N#C/N=C(\Nc1cccnc1)NC1(c2cccc(Cl)c2)CCC1` returned an IC50 in test [27] of 18 nM.

Consider `CC(C)CN(CC(C)C)S(=O)(=O)c1ccc2c(c1)[C@@H](/N=C(\NC#N)Nc1ccc(Cl)cc1)[C@H](O)C(C)(C)O2`, for which the Ratio in test [8] was under 0.004. The same molecule registered an EC25 in the test listed under Rattus norvegicus [10] of 40 nM.

As to `C[C@@H](N/C(=N/C#N)Nc1cccnc1)c1ccccc1`, the NA entry in test [7] was “inactive”.

Turning to `C1CCC(/N=C(\NC23CC4CC(CC(C4)C2)C3)N2CCOCC2)CC1`, half-maximal inhibition in test [28] (IC50) required 32000 nM.

For the molecule `CC1=Nc2ccc(Cl)cc2S(=O)(=O)N1` [DIAZOXIDE], the Insulin release in the test listed under Rattus norvegicus [3] turned out to be 28.8%. Further, the EC50 in the test listed under Rattus norvegicus [4] was 19300 nM. For `CC(NC1=NS(=O)(=O)c2cnccc2N1)C(C)(C)C` (stereo not drawn), in that order: 7.1% and 154000 nM. Molecule `CC(C)(C)O/N=C(\c1cc(Br)c(F)cc1O)c1c(O)ccc[n+]1[O-]` returned a 50% inhibitory concentration (IC50) in the test listed under Rattus norvegicus [29] of 280 nM. `Fc1ccc(CN(C2=NCCN2)c2c(Cl)cccc2Cl)cc1` returned a pKb in the test filed under Rattus norvegicus [30] of 7.1. As for `CC1(C)Oc2ccc(C#N)cc2[C@@H](/N=C(\NC#N)Nc2ccc(Cl)cc2)[C@@H]1O`, the Ratio in [8] was 1.4. It took 2500 nM to reach the 25% level in the test listed under Rattus norvegicus [10] (EC25). For the molecule `CNC(=S)C1(C(=O)c2ccc(-n3ccnc3)cc2)CCC1`, the Kd – broadly, the concentration at which binding is half-saturated – was 5200 nM in test [31] and 8500 nM in [34]. In addition, inhibition in the test filed under Rattus norvegicus [32] was half-maximal at 12000 nM (IC50). This molecule returned an EC50 in the test listed under Rattus norvegicus [33] of 5300 nM. Take `NC(=O)C(c1ccccc1)(c1ccc(F)cc1)c1ccccc1F` (stereo not drawn): the IC50 in [35] came to 2000 nM; in [36], 9 nM. Take `CC(O)(C(=O)Nc1cccc2c1C(=O)c1sccc1CO2)C(F)(F)F` (stereo not drawn): inhibition in the test filed under Cavia porcellus [14] was half-maximal at 2100 nM (IC50).
